# Measurements from US9873704B2, “Heterocyclic compounds and their uses” (Amgen Inc., priority 2009, dated 2018).
# Read-outs that look alike come from different tables or passages of the source.
# Target: T1, PI3Kδ (Homo sapiens, UniProt O00329)
# T1 construct: Full length p110 subunits of PI3k α, β and δ, N-terminally labeled with polyHis tag; polyHis (N); made in house; host or cells: Sf9 insect cells (baculovirus)
# Assay: PI3Kδ Alphascreen assay
# Type: biochemical
# Protocol: Full length p110 subunits of PI3k α, β and δ, N-terminally labeled with polyHis tag, were coexpressed with p85 with Baculo virus expression vectors in sf9 insect cells. P110/p85 heterodimers were purified by sequential Ni-NTA, Q-HP, Superdex-100 chromatography. Purified α, β and δ isozymes were stored at −20° C. in 20 mM Tris, pH 8, 0.2M NaCl, 50% glycerol, 5 mM DTT, 2 mM Na cholate. […] The γ isozyme was purified by sequential Ni-NTA, Superdex-200, Q-HP chromatography. The γ isozyme was stored frozen at −80° C. in NaH2PO4, pH 8, 0.2M NaCl, 1% ethylene glycol, 2 mM β-mercaptoethanol.
# A PI3K Alphascreen® assay (PerkinElmer, Waltham, Mass.) was used to measure the activity of a panel of four phosphoinositide 3-kinases: PI3Kα, PI3Kβ, PI3Kγ, and PI3Kδ. Enzyme reaction buffer was prepared using sterile water (Baxter, Deerfield, Ill.) and 50 mM Tris HCl pH 7, 14 mM MgCl2, 2 mM sodium cholate, and 100 mM NaCl. 2 mM DTT was added fresh the day of the experiment. The Alphascreen buffer was made using sterile water and 10 mM Tris HCl pH 7.5, 150 mM NaCl, 0.10% Tween 20, and 30 mM EDTA. 1 mM DTT was added fresh the day of the experiment. Compound source plates used for this assay were 384-well Greiner clear polypropylene plates containing test compounds at 5 mM and diluted 1:2 over 22 concentrations. Columns 23 and 24 contained only DMSO as these wells comprised the positive and negative controls, respectively. Source plates were replicated by transferring 0.5 uL per well into 384-well Optiplates (PerkinElmer, Waltham, Mass.).
# Each PI3K isoform was diluted in enzyme reaction buffer to 2× working stocks. […] PI(4,5)P2 (Echelon Biosciences, Salt Lake City, Utah) was diluted to 10 μM and ATP was diluted to 20 μM. This 2× stock was used in the assays for PI3Kα and PI3Kβ. For assay of PI3Kγ and PI3Kδ, PI(4,5)P2 was diluted to 10 μM and ATP was diluted to 8 μM to prepare a similar 2× working stock. Alphascreen reaction solutions were made using beads from the anti-GST Alphascreen kit (PerkinElmer, Waltham, Mass.). Two 4× working stocks of the Alphascreen reagents were made in Alphascreen reaction buffer. In one stock, biotinylated-IP4 (Echelon Biosciences, Salt Lake City, Utah) was diluted to 40 nM and streptavidin-donor beads were diluted to 80 μg/mL. In the second stock, PIP3-binding protein (Echelon Biosciences, Salt Lake City, Utah) was diluted to 40 nM and anti-GST-acceptor beads were diluted to 80 μg/mL.
# 10 μL/well of the appropriate substrate 2× stock (containing 20 μM ATP for the PI3Kα and β assays and containing 8 μM ATP for the PI3Kγ and δ assays) was then added to Columns 1-24 of all plates. Plates were then incubated at room temperature for 20 minutes. In the dark, 10 μL/well of the donor bead solution was added to columns 1-24 of the plates to quench the enzyme reaction. The plates were incubated at room temperature for 30 minutes. Still in the dark, 10 μL/well of the acceptor bead solution was added to columns 1-24 of the plates. The plates were then incubated in the dark for 1.5 hours. The plates were read on an Envision multimode Plate Reader (PerkinElmer, Waltham, Mass.) using a 680 nm excitation filter and a 520-620 nm emission filter.
# T1 sequence (O00329 whole entry): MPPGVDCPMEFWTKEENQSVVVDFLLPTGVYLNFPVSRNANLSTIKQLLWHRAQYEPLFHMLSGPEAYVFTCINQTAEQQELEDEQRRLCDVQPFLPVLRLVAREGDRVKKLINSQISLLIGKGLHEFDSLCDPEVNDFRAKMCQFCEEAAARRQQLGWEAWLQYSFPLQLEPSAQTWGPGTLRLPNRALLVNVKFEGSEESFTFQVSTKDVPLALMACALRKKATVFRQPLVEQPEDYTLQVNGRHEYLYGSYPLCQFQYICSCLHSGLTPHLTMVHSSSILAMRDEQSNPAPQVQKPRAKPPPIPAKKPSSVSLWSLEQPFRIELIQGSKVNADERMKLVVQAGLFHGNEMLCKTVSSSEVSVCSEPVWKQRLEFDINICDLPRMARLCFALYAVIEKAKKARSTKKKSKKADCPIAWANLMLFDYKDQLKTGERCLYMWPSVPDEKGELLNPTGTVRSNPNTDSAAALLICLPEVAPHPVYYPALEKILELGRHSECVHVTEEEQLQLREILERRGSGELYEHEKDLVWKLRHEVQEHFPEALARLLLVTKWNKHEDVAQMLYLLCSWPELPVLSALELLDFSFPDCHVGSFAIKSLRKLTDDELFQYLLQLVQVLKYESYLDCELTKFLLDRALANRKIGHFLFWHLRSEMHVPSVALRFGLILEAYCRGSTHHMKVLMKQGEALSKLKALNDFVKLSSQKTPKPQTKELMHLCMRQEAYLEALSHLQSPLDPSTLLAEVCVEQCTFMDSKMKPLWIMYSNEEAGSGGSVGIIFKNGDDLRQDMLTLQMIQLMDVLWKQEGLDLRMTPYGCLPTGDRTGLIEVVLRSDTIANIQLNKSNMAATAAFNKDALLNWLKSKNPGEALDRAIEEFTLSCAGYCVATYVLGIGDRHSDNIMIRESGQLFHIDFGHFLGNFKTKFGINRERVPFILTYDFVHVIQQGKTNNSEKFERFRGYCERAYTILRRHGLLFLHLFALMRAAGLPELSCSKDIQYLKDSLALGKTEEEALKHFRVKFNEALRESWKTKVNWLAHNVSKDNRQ
# T1 sequence (P27986 whole entry partner): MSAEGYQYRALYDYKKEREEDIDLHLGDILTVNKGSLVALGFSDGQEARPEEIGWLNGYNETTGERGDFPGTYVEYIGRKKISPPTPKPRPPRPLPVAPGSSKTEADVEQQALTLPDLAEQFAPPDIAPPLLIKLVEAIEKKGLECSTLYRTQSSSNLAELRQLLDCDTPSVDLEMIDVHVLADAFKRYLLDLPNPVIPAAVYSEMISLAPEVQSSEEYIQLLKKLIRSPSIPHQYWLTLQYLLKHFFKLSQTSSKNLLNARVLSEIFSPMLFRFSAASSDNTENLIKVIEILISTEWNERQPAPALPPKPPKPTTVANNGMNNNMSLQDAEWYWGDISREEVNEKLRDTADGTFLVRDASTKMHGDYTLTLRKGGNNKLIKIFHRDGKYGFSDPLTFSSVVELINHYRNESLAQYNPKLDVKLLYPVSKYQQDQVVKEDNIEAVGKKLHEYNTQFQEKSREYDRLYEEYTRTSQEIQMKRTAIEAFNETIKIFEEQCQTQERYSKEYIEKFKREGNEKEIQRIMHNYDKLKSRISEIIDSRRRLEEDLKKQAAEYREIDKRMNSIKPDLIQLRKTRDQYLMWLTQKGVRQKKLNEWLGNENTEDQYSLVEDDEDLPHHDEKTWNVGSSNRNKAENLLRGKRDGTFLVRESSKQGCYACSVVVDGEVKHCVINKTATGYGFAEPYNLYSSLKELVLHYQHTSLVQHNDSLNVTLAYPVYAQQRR
smiles,measurement,setting,value
"N#Cc1c(N)ncnc1NCc1nc2cccc(F)c2cc1-c1cc(F)cc(F)c1 [4-Amino-6-((3-(3,5-difluorophenyl)-5-fluoroquinolin-2-yl)methylamino)pyrimidine-5-carbonitrile]",Ki,,246 nM
CC(Nc1ncnc(N)c1C#N)c1nc2ccc(F)cc2c(C(=O)N2CCN(C)CC2)c1-c1ccccc1 (centres unmarked) [4-Amino-6-((1-(6-fluoro-4-((4-methyl-1-piperazinyl)carbonyl)-3-phenyl-2-quinolinyl)ethyl)amino)-5-pyrimidinecarbonitrile],Ki,,1.32 nM
CC(Nc1ncnc2[nH]cnc12)c1nc2ccc(F)cc2c(S(C)(=O)=O)c1-c1ccccc1 (centres unmarked) [N-(1-(6-Fluoro-4-(methylsulfonyl)-3-phenylquinolin-2-yl)ethyl)-9H-purin-6-amine],Ki,,2.34 nM
C[C@H](Nc1ncnc(N)c1C#N)c1nc2ccc(F)cc2c(C(=O)NC2CC2)c1-c1ccccn1 [(S)-2-(1-(6-Amino-5-cyanopyrimidin-4-ylamino)ethyl)-N-cyclopropyl-6-fluoro-3-(pyridin-2-yl)quinoline-4-carboxamide],Ki,,1.64 nM
"CC(Nc1ncnc(N)c1C#N)c1nc2ncccc2cc1-c1ccccn1 (racemic) [4-Amino-6-(((1S, 1R)-1-(3-(2-pyridinyl)-1,8-naphthyridin-2-yl)ethyl)amino)-5-pyrimidinecarbonitrile]",Ki,,225 nM
CC(Nc1ncnc(N)c1C#N)c1nc2ccc(F)cc2c(C(=O)N2CC[C@H](O)C2)c1-c1ccccc1 (stereo partly drawn) [4-Amino-6-((-1-(6-fluoro-4-(((3S)-3-hydroxy-1-pyrrolidinyl)carbonyl)-3-phenyl-2-quinolinyl)ethyl)amino)-5-pyrimidinecarbonitrile],Ki,,1.02 nM
CS(=O)(=O)c1ccccc1-c1cc2cccc(F)c2nc1CNc1ncnc(N)c1C#N [4-Amino-6-((8-fluoro-3-(2-(methylsulfonyl)phenyl)quinolin-2-yl)methylamino)-pyrimidine-5-carbonitrile],Ki,,30.7 nM
CC(Nc1ncnc(N)c1C#N)c1nc2ccc(F)cc2c(C(=O)NCCN2CCOCC2)c1-c1ccccc1 (centres unmarked) [2-(1-((6-Amino-5-cyano-4-pyrimidinyl)amino)ethyl)-6-fluoro-N-(2-(4-morpholinyl)ethyl)-3-phenyl-4-quinolinecarboxamide],Ki,,1.02 nM
C[C@H](Nc1ncnc(N)c1C#N)c1nc2ccc(F)cc2c(C(=O)N2CCOCC2)c1-c1ccccc1 [4-amino-6-(((1S)-1-(6-fluoro-4-(4-morpholinylcarbonyl)-3-phenyl-2-quinolinyl)ethyl)amino)-5-pyrimidinecarbonitrile],Ki,,0.505 nM
"C[C@@H](c1nc2ccc(F)cc2cc1-c1cncc(F)c1)n1nc(C#N)c2c(N)ncnc21 [4-Amino-1-((S)-1-(6-fluoro-3-(5-fluoropyridin-3-yl)quinolin-2-yl)ethyl)-1H-pyrazolo[3,4-d]pyrimidine-3-carbonitrile]",Ki,,25 nM
CC(Nc1ncnc(N)c1C#N)c1nc2ccc(F)cc2c(C(=O)N2CC[C@@H](O)C2)c1-c1ccccc1 (stereo partly drawn) [4-Amino-6-((1-(6-fluoro-4-(((3R)-3-hydroxy-1-pyrrolidinyl)carbonyl)-3-phenyl-2-quinolinyl)ethyl)amino)-5-pyrimidinecarbonitrile],Ki,,25.6 nM
same,Ki,listed as 4-amino-6-(-1-(6-fluoro-4-(((3R)-3-hydroxy-1-pyrrolidinyl)-carbonyl)-3-phenyl-2)),5.07 nM
C[C@H](Nc1ncnc2[nH]cnc12)c1nc2ccc(F)cc2cc1-c1ccccn1 [(S)—N-(1-(6-Fluoro-3-(pyridin-2-yl)quinolin-2-yl)ethyl)-9H-purin-6-amine],Ki,,4.15 nM
CC(Nc1ncnc(N)c1C#N)c1nc2ccc(F)cc2c(C(=O)N2CCOCC2)c1-c1ccccc1 (centres unmarked) [4-Amino-6-((-1-(6-fluoro-4-(4-morpholinylcarbonyl)-3-phenyl-2-quinolinyl)-ethyl)amino)-5-pyrimidinecarbonitrile],Ki,,2.88 nM
CC(Nc1ncnc(N)c1C#N)c1nc2ccc(F)cc2c([S@@+]([O-])CCO)c1-c1ccccc1 (stereo partly drawn) [4-amino-6-(1-(6-fluoro-4-((S)-2-hydroxyethylsulfinyl)-3-phenylquinolin-2-yl)ethylamino)pyrimidine-5-carbonitrile],Ki,,1.8 nM
COCCNc1c(-c2ccccc2)c([C@@H](C)Nc2ncnc(N)c2C#N)nc2ccc(F)cc12 [4-Amino-6-(((1R)-1-(6-fluoro-4-((2-methoxyethyl)amino)-3-phenyl-2-quinolinyl)ethyl)amino)-5-pyrimidinecarbonitrile],Ki,,62.2 nM
C[C@@H](Nc1ncnc2[nH]cnc12)c1nc2ccc(F)cc2c(S(C)(=O)=O)c1-c1ccccc1 [(R)—N-(1-(6-fluoro-4-(methylsulfonyl)-3-phenylquinolin-2-yl)ethyl)-9H-purin-6-amine],Ki,,410 nM
C[C@H](Nc1ncnc(N)c1C#N)c1nc2ccc(F)cc2c(S(C)(=O)=O)c1-c1ccccc1 [4-amino-6-(((1S)-1-(6-fluoro-4-(methylsulfonyl)-3-phenyl-2-quinolinyl)ethyl)amino)-5-pyrimidinecarbonitrile],Ki,,0.741 nM
N#Cc1c(N)ncnc1NCc1nc2c(F)cccc2cc1-c1ccccn1 [4-Amino-6-((8-fluoro-3-(pyridin-2-yl)quinolin-2-yl)methyl-amino)pyrimidine-5-carbonitrile],Ki,,262 nM
CC(Nc1ccncn1)c1nc2ccc(F)cc2cc1-c1ccccn1 (centres unmarked) [N-(1-(6-Fluoro-3-(pyridin-2-yl)quinolin-2-yl)ethyl)pyrimidin-4-amine],Ki,,11600 nM
CC(Nc1ncnc(N)c1C#N)c1nc2ccc(F)cc2c(C(=O)O)c1-c1ccccn1 (centres unmarked) [2-1-((6-Amino-5-cyano-4-pyrimidinyl)amino)ethyl)-6-fluoro-3-(2-pyridinyl)-4-quinolinecarboxylic acid],Ki,,119 nM
CC(Nc1ncnc(N)c1C#N)c1nc2ccc(F)cc2c(C(=O)NCC2CC2)c1-c1ccccc1 (centres unmarked) [2-(1-(6-Amino-5-cyanopyrimidin-4-ylamino)ethyl)-N-(cyclopropylmethyl)-6-fluoro-3-phenylquinoline-4-carboxamide],Ki,,5.15 nM
"C[C@@H](Nc1ncnc(N)c1C#N)c1nc2ccc(F)cc2c(C(=O)N(C)C)c1-c1ccccn1 (stereo in doubt) [2-(1-((6-Amino-5-cyano-4-pyrimidinyl)amino)ethyl)-6-fluoro-N,N-dimethyl-3-(2-pyridinyl)-4-quinolinecarboxamide]",Ki,,7.77 nM
C[C@H](Nc1ncnc(N)c1C#N)c1nc2ccc(F)cc2c(C(=O)NCCO)c1-c1ccccn1 [(S)-2-(1-(6-Amino-5-cyanopyrimidin-4-ylamino)ethyl)-6-fluoro-N-(2-hydroxyethyl)-3-(pyridin-2-yl)quinoline-4-carboxamide],Ki,,7.57 nM
CS(=O)(=O)c1ccccc1-c1cc2c(F)cccc2nc1CNc1ncnc(N)c1C#N [4-Amino-6-((5-fluoro-3-(2-(methylsulfonyl)phenyl)quinolin-2-yl)methylamino)pyrimidine-5-carbonitrile],Ki,,39 nM
"CC(Nc1ncnc(N)c1C#N)c1nc2ccc(F)cc2c(S(C)(=O)=O)c1-c1cc(F)cc(F)c1 (centres unmarked) [4-Amino-6-(1-(3-(3,5-difluorophenyl)-6-fluoro-4-(methylsulfonyl)quinolin-2-yl)ethylamino)pyrimidine-5-carbonitrile]",Ki,,1.12 nM
N#Cc1c(N)ncnc1NCc1nc2cccc(F)c2cc1-c1ccccn1 [4-Amino-6-((5-fluoro-3-(pyridin-2-yl)quinolin-2-yl)methylamino)pyrimidine-5-carbonitrile],Ki,,137 nM
C[C@H](Nc1ncnc(N)c1C#N)c1nc2cccc(C#N)c2cc1-c1ccccn1 [2-((1S)-1-((6-Amino-5-cyano-4-pyrimidinyl)amino)ethyl)-3-(2-pyridinyl)-5-quinolinecarbonitrile],Ki,,14.1 nM
COCCNc1c(-c2ccccc2)c([C@H](C)Nc2ncnc(N)c2C#N)nc2ccc(F)cc12 [4-Amino-6-(((1S)-1-(6-fluoro-4-((2-methoxyethyl)amino)-3-phenyl-2-quinolinyl)ethyl)amino)-5-pyrimidinecarbonitrile],Ki,,0.61 nM
